The text below walks through data of patent publication US12559449B2, “Aromatic ring or heteroaromatic ring derivatives, preparation method therefor and use thereof” (ZHEJIANG HISUN PHARMACEUTICAL CO., LTD., priority 2019, dated 2026).

Like-named read-outs stand apart in the source and are kept apart here.

In one data set the target is T1, human AT2R (Homo sapiens, UniProt P50052).
T1 construct: Tb (terbium) label on the receptor; expressed in transfected cells
T1 sequence (P50052 1-363): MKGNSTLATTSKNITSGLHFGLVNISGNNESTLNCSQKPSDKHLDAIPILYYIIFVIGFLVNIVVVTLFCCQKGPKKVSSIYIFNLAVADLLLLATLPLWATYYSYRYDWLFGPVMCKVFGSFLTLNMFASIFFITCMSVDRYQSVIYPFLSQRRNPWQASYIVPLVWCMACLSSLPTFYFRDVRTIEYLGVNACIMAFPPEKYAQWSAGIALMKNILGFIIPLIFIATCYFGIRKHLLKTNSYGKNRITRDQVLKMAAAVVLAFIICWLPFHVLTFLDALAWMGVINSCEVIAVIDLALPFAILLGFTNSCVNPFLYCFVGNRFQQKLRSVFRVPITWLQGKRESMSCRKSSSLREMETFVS
The data set can be described thus: Antagonistic activity on the binding of human AT2R ligand (Tag-lite HTRF ligand binding, Tb-labeled-AT2R cells). To be noted: red agonist fluorescent ligand, 1 hour room temperature. The procedure: Test Example 1 Test of the Antagonistic Activity of the Compound of the Present Disclosure on the Binding of Human AT2R Ligand
Angiotensin II Type 2 Receptor (AT2R) is involved in neuron differentiation and regeneration, cell proliferation and angiogenesis, and maintenance of bone mass. […] The following method uses the AT2 ligand binding test to study the degree of antagonism of the compounds of the present disclosure to AT2R.
2. Reagent Preparation • (1) 10 mM of angiotensin II human: 10 mg of Angiotensin II human (purity 99.09%) was dissolved in 0.947 mL of deionized water, aliquoted and stored at −80° C.; • (2) Preparation of compound stock solution
3. […] 4. Experimental Results

Data set [1] in a line: Metabolic stability in rat liver microsomes. It is filed as in vitro ADME. The following applies: pH 7.4; rat liver microsomes 0.5 mg/mL, 1 μM compound, NADPH 1 mM, 0-60 min; read-out: half-life/(T1/2, min). The procedure:
Test Example 2. Study on the Metabolic Stability of the Compounds of the Present Disclosure in Rat Liver Microsomes
The purpose of this experimental study is to study the metabolic stability of the compounds of the present disclosure in rat liver microsomes.
The test compounds were co-incubated with rat liver microsomes, and the coenzyme NADPH was added to initiate the reaction. At 0, 5, 15, 30, and 60 minutes, 20 μL of incubation solution was taken out and transferred to 200 μL of acetonitrile containing internal standard to stop the reaction. After protein precipitation, it was centrifuged at 3,700 rpm for 10 minutes. The supernatant was taken and analyzed by LC-MS/MS method after being diluted at 1:1 with water. According to the elimination half-life of the test compound in the incubation system, the in vitro clearance rate was calculated. Midazolam was used as the internal reference compound and incubated for 2 copies in parallel.
The ratio of analyte/internal standard peak area (Aanalyte/AIS) was obtained from the instrument, and the remaining percentage (% Control) was calculated as the ratio of Aanalyte/AIS in the non-zero time point sample to the zero time point sample. Ln (% Control) versus incubation time was plotted and subjected to a linear fitting. The clearance constant (k, min-) and clearance half-life (T1/2, min) of the test compounds were calculated by the following equations.
[formula] 4. Experimental Results

For another data set, the target named is T2, AT1R (Homo sapiens, UniProt P30556).
T2 construct: Tb (terbium) label on the receptor; expressed in transfected cells
T2 sequence (P30556 1-359): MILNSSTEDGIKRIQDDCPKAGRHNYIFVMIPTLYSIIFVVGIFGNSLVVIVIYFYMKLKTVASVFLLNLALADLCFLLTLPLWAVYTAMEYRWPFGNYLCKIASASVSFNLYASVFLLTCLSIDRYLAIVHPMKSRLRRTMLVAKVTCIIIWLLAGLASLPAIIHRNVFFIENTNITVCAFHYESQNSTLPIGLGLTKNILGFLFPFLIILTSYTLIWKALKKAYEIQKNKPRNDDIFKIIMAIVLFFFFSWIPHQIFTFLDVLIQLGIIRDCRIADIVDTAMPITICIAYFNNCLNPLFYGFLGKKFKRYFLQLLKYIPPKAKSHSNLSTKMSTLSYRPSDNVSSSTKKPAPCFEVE
As to the kind of experiment: Antagonistic activity on AT1R, same method with Tb-labeled-AT1R cells. The class given is binding.

A short description of data set [2]: Pharmacokinetics in SD rats, intravenous injection or intragastric administration. It is filed as in vivo. To be noted: for half-life / MRT / bioavailability / Cmax: male, Sprague-Dawley, rat, plasma; for half-life: read-out: half-life T1/2 (converted); for MRT: read-out: residence time MRT; for bioavailability: read-out: bioavailability F; for Cmax: read-out: drug concentration in blood, Cmax. The text has this:
Test Example 3. Study on Oral Pharmacokinetics of the Compounds of the Present Disclosure in SD Rats
SD rats were taken as the test animals. The LC/MS/MS method was used to determine the intravenous injection or intragastric administration of the compounds of the present disclosure in rats, and to determine the drug concentration in plasma at different time points to study the pharmacokinetic characteristics of the compounds of the present disclosure in rats.
Experimental drugs: Olodanrigan, compounds 12, 14, 15 and 16 of the present disclosure;
Animals: 30 healthy adult Sprague Dawley (SD) male rats, purchased from Weitong Lihua Experimental Animal Technology Co. Ltd., production license number: 11400700271077.
An appropriate amount of samples were weighed, and added with DMA, solutol HS 15 (30%, w/v) and normal saline respectively, and then subjected to ultrasound and filtered through PTFE membrane to make a 0.2 mg/mL solution.
An appropriate amount of samples were weighed, added with 0.5% sodium carboxymethyl cellulose (CMC-Na) (containing 0.5% Tween 80), and ultrasonically prepared into a 1 mg/mL suspension. […]
About 0.2 mL of blood was collected from the jugular vein before administration and at 0.083 hours, 0.25 hours, 0.5 hours, 1 hour, 2 hours, 4 hours, 8 hours, 12 hours, and 24 hours after administration, and heparin sodium was used for anticoagulation. The blood samples were collected on ice and centrifuged to separate the plasma (centrifugation conditions: 1500 g, 10 minutes). The collected plasma was stored at −40 to −20° C. before analysis.
10 μL of plasma sample was taken and added with 400 μL of acetonitrile (comprising internal standard working solution which contained verapamil 5 ng/mL and glibenclamide 50 ng/mL). It was vortexed for 10 minutes, centrifuge at 3700 rpm for 10 minutes. 70 μL of the supernatant was taken and added with 70 μL of water, and vortexed for 10 minutes. 2 μL of the mixed solution was taken and injected into LC-MS/MS for sample analysis.

Where [3] appears, read: oral (3 mg/kg) versus injection (1 mg/kg).
Setting [4] is: 3 mg/kg, oral (mg/kg), dose not given.
The mark [5] stands for this setting: oral (mg/kg), dose figure not given, versus injection (1 mg/kg).

`CN(C(=O)C(c1ccccc1)c1ccccc1)c1ccc(N2CCCOc3ccc(F)cc32)cc1C(=O)O` [Compound 4, 5-(7-fluoro-3,4-dihydrobenzo[b][1,4]oxazepine-5(2H)-yl)-2-(N-methyl-2,2-diphenylacetamido)benzoic acid]: the IC50 was 37 nM on human AT2R and greater than 10 µM at AT1R. Moreover, the half-life at 1 μM in data set [1] was 185 min.

On to `CN(C(=O)C(c1ccccc1)c1ccccc1)c1cnc(N2CCCOc3ccc(F)cc32)cc1C(=O)O` [Compound 5, 2-(7-fluoro-3,4-dihydrobenzo[b][1,4]oxazepine-5(2H)-yl)-5-(N-methyl-2,2-diphenylacetamido)isonicotinic acid], for which the figures for the IC50 on human AT2R and at AT1R were 10 nM and greater than 10 µM, respectively.

Consider `CN(C(=O)C(c1ccccc1)c1ccccc1)c1cnc(N2CCCOc3cc(F)c(F)cc32)cc1C(=O)O` [Compound 6, 2-(7,8-difluoro-3,4-dihydrobenzo[b][1,4]oxazepine-5(2H)-yl)-5-(N-methyl-2,2-diphenylacetamido)isonicotinic acid], for which the IC50 was 26 nM on human AT2R and greater than 10 µM against AT1R.

Take `CN(C(=O)C(c1ccccc1)c1ccccc1)c1ccc(N2CCCOc3ccc(F)cc32)nc1C(=O)O` [Compound 8, 6-(7-fluoro-3,4-dihydrobenzo[b][1,4]oxazepine-5(2H)-yl)-3-(N-methyl-2,2-diphenylacetamido)picolinic acid]: the figures for the IC50 on human AT2R and against AT1R were 28 nM and greater than 10 µM, respectively.

In the case of `O=C(O)c1cc(N2CCCOc3ccc(F)cc32)ncc1-c1nc2ccccc2o1` [Compound 12, 5-(benzo[d]oxazol-2-yl)-2-(7-fluoro-3,4-dihydrobenzo[b][1,4]oxazepine-5(2H)-yl)isonicotinic acid], the “area under curve AUO0-∞” value in data set [2] (injection (1 mg/kg)) came to 16200 ± 3530 ng·h/mL. Further, in data set [2] (iv, injection (1 mg/kg)), the half-life is 8.1 ± 2.1 h and the MRT was found to be 7.3 ± 1.5 h. In addition, in data set [2] (setting [3]), the bioavailability was 83.1%. In data set [2] (oral (3 mg/kg)), the Cmax was found to be 8650 ± 6020 ng/mL, the half-life was 4.7 ± 0.3 h, the mean residence time MRT was found to be 6.1 ± 0.5 h and the “area under curve AUO0-∞” value is 40400 ± 14272 ng·h/mL. Also, the half-life at 1 μM in data set [1] was 288 min.

As for `O=C(O)c1cc(N2CCCOc3ccc(F)cc32)ncc1-c1nc2cc(F)ccc2o1` [Compound 14, 2-(7-fluoro-3,4-dihydrobenzo[b][1,4]oxazepine-5(2H)-yl)-5-(5-fluorobenzo[d]oxazol-2-yl)isonicotinic acid], the “area under curve AUO0-∞” value in data set [2] (injection (1 mg/kg)) came out at 13800 ± 1370 ng·h/mL. In data set [2] (iv, injection (1 mg/kg)), the half-life is 4.7 ± 0.4 h and the MRT was 4.5 ± 0.2 h. Further, the bioavailability in data set [2] (setting [3]) was 105%. Further, in data set [2] (oral (3 mg/kg)), the Cmax was 14300 ± 5130 ng/mL, the half-life was 3.6 ± 0.2 h, the MRT amounted to 4.7 ± 0.3 h and the “area under curve AUO0-∞” value worked out at 43400 ± 11173 ng·h/mL. The half-life at 1 μM in data set [1] was found to be 600 min.

As to `O=C(O)c1cc(N2CCCOc3ccc(F)cc32)ncc1-c1nc2ccc(F)cc2o1` [Compound 15, 2-(7-fluoro-3,4-dihydrobenzo[b][1,4]oxazepine-5(2H)-yl)-5-(6-fluorobenzo[d]oxazol-2-yl)isonicotinic acid], in data set [2] (injection (1 mg/kg)), the “area under curve AUO0-∞” value turned out to be 12100 ± 751 ng·h/mL. For the same compound, in data set [2] (iv, injection (1 mg/kg)), the half-life is 4.5 ± 0.4 h and the MRT stood at 4.5 ± 0.4 h. The bioavailability in data set [2] (setting [3]) came out at 89.9%. Further, in data set [2] (oral (3 mg/kg)), the Cmax is 7050 ± 2640 ng/mL, the half-life is 4.2 ± 0.4 h, the MRT came to 5.2 ± 0.4 h and the “area under curve AUO0-∞” value is 32400 ± 6514 ng·h/mL. Moreover, the half-life at 1 μM in data set [1] was 160 min.

For the compound `N#Cc1ccc2nc(-c3cnc(N4CCCOc5ccc(F)cc54)cc3C(=O)O)oc2c1` [Compound 16, 5-(6-cyanobenzo[d]oxazol-2-yl)-2-(7-fluoro-3,4-dihydrobenzo[b][1,4]oxazepine-5(2H)-yl)isonicotinic acid], in data set [2] (injection (1 mg/kg)), the “area under curve AUO0-∞” value turned out to be 20800 ± 1740 ng·h/mL. In data set [2] (setting [4]), the Cmax worked out at 5250 ± 315 ng/mL, the half-life was 3.7 ± 0.4 h and the MRT amounted to 5.5 ± 0.4 h. In data set [2] (iv, injection (1 mg/kg)), the half-life is 3.3 ± 0.2 h and the MRT was 3.2 ± 0.3 h. In addition, in data set [2] (setting [5]), the bioavailability was found to be 41.3%. Further, the “area under curve AUO0-∞” value in data set [2] (oral (mg/kg), dose not given) was 25800 ± 6100 ng·h/mL. The half-life at 1 μM in data set [1] was 598 min.

For the compound `COc1ccc2c(c1OCc1ccccc1)C[C@@H](C(=O)O)N(C(=O)C(c1ccccc1)c1ccccc1)C2` [olodanrigan, reference compound], in data set [2] (injection (1 mg/kg)), the “area under curve AUO0-∞” value worked out at 1230 ± 96 ng·h/mL. Also, in data set [2] (setting [4]), the Cmax came to 470 ± 197 ng/mL, the half-life was 1.5 ± 0.3 h and the MRT worked out at 2.6 ± 1 h. Besides, in data set [2] (iv, injection (1 mg/kg)), the half-life is 1.6 ± 0.3 h and the MRT came out at 0.92 ± 0.16 h. Further, the bioavailability in data set [2] (setting [5]) is 12.1%. In addition, the “area under curve AUO0-∞” value in data set [2] (oral (mg/kg), dose not given) stood at 1483 ± 715 ng·h/mL. The half-life at 1 μM in data set [1] was found to be 96.3 min. Besides, the IC50 against AT1R was greater than 10 µM.
